Assay results reported in patent publication US12594292B2, “Antiviral prodrugs, intermediate-and long-acting formulations and methods” (priority 2022, dated 2026).

Tests used:
[1] = system: VERO E6 cells; assay: Cellular cytotoxicity in Vero E6 cells, MTT assay (Example 2); format: cell-based
Method: Ten thousand Vero E6 cells were seeded in 100 microliters of culture medium in 96 well plates. The following day serial two-fold dilutions of antiviral compounds or the DMSO-containing vehicle were added to each well. The USA WA-01 strain of SARS CoV-2 was added to each well at a multiplicity of infection of 0.1 thirty minutes later. Cells were incubated for 48 hours, washed twice in PBS and lysed with TRIzol. RNA was extracted using Directzol micro RNA columns. RNA was made into cDNA and assayed for the SARS CoV-2 spike protein and for a housekeeping gene (RPLPO) RNA by qPCR. Data represents the average of duplicate wells. Cellular cytotoxicity was also measured in VERO E6 cells. […] Cytotoxicity (CC50) was assessed using a commercially available MTT assay.

[2] = system: SARS-CoV-2 isolate USA-WA1/2020; assay: SARS-CoV-2 infection in Vero E6 cells, qRT-PCR of Spike RNA (Example 3); format: cell-based
[3] = system: VERO E6 cells; assay: CellTiter-Glo luminescent cell viability assay, Vero E6 (Example 3); format: cell-based
[4] = system: SARS-CoV-2 isolate USA-WA1/2020; assay: SARS-CoV-2 infection in Huh7.5 cells, qRT-PCR (Example 7); format: cell-based
[5] = Seven day oral pharmacokinetics in Syrian hamsters; format: in vivo
Method: ODBG-P-RVn in 0.1M sodium carbonate/bicarbonate buffer, pH 9.0, was administered to Syrian Hamsters by oral gavage every 12 hours for seven days. ODBG-P-RVn was present as the sodium salt.
FIG. 4A and FIG. 4B depict the seven day oral pharmacokinetics in Syrian hamsters. Syrian hamsters were given vehicle or ODBG-P-RVn by oral gavage every 12 hours for 7 days. Groups of 3 animals received vehicle or drug at doses of 16.9 and 13.2 mg/kg. Animals were weighed daily and monitored for clinical signs.
Analytical Methods: ODBG-P-RVn: Hamster plasma samples (10 μL) containing ODBG-P-RVn and K2EDTA as the anticoagulant were added to polypropylene tubes containing water (100 μL), internal standard solution (10 μL; 1,000 ng/mL of ODE-P-RVn in ACN:DMF (1:1, v/v)), and 10 μL of ACN:DMF (1:1, v/v). The solutions were mixed, then acidified with phosphoric acid, 85% w/v:water (1:19, v/v; 10 μL), mixed, then diluted with 200 μL of IPA, mixed, then diluted with 500 μL of water, and mixed. The samples were extracted with a Sep-Pak® tC18 96-well solid phase extraction plate (25 mg; Waters, Milford, MA). Extraction occurred under positive pressure conditions using nitrogen. Samples were washed serially with 1 mL of water:acetonitrile:formic acid (475:25:0.5, v/v/v) and 0.4 mL of water:acetonitrile:formic acid (350:150:0.5, v/v/v) before being serially eluted with 100 μL and 150 μL of water:{acetonitrile:isopropyl alcohol (1:1, v/v)}:formic acid:ammonium formate:citric acid solution, 2% w/v (15:85:0.1:0.1:0.1, v/v/v/w/v). The citric acid solution was prepared as water:citric acid monohydrate (20:0.4, v/w). After elution, 100 μL of water was added to each sample. The ODBG-P-RVn extracts were analyzed using an Agilent 1200 HPLC system (Agilent, Santa Clara, CA) coupled to an API5500 mass analyzer (SCIEX, Foster City, CA). Analytes were chromatographically separated using a Dacapo DX-C18 MF column (100×2 mm, 2.5 μm; ImtaktUSA, Portland, OR) using a mobile phase system consisting of Mobile Phase A (water:formic acid:[water:ammonium formate:citric acid (25:5:0.5, v/w/w)](1.000:1:1, v/v/v) and Mobile Phase B (acetonitrile:isopropyl alcohol:formic acid:[water:ammonium formate:citric acid (25:5:0.5, v/w/w)](800:200:1:1, v/v/v/v). The total analytical run time was 4.5 minutes. The mobile phase was nebulized using heated nitrogen in a Turbo-V source/interface set to electrospray positive ionization mode. The ionized compounds were detected using multiple reaction monitoring with transitions m/z 788.4>229 (V2043) and 668.4>467.2 (V2041). This method is applicable for measuring ODBG-P-RVn concentrations ranging from 6.25 to 3,000 ng/mL using 10.0 μL of plasma for extraction. The peak areas of ODBG-P-RVn and RVn were acquired using Analyst v. 1.6.2 (SCIEX, Framingham, MA). The calibration curve was obtained by fitting the peak area ratios of the analyte/I.S. and the standard concentrations to a linear equation with 1/x2 weighting, using Analyst. The equation of the calibration curve was then used to interpolate the concentrations of the analyte in the samples using their peak area ratios. The peak areas used for the calculations were not rounded.
The solutions were mixed and centrifuged at 16,000 g for five minutes. […] The GS-441524 extracts were analyzed using an Acquity UPLC system (Waters, Milford, MA) coupled to a G2-S QTof mass analyzer (Waters, Milford, MA). […]

[6] = Vero E6 cells, MOI 0.01, 48 hours, mean±SD
[7] = based on the EC50 values, Vero E6

## CCCCCCCCCCCCCCCCCCOC[C@H](COP(=O)(O)OC[C@H]1O[C@@](C#N)(c2ccc3c(N)ncnn23)[C@H](O)[C@@H]1O)OCc1ccccc1 [Compound 15d, 1-O-octadecyl-2-O-benzyl-sn-glyceryl-phospho-RVn]
[1]
  CC50: > 50000 nM
[2]; CC50/EC50, Vero E6
  Selectivity: 240
[2]; [6]
  EC50: 190 ± 23 nM
  EC90: 560 ± 0.2 nM
[2]; [7]
  times more active than RDV: 24
  times more active than RVn: 8.9
[3]
  CC50: 46000 nM
[4]; CC50/EC50, Huh7.5 cells
  Selectivity: 449
[4]; Huh7.5 cells, MOI 0.01, 48 hours, qRT-PCR (Example 7)
  EC90: 150 nM
[4]; Huh7.5 cells, MOI 0.01, 48 hours, qRT-PCR (Example 7), listed as ODBG-P-RVn
  EC50: 140 nM
[5]; day 1 and 7
  ODBG-P-RVn plasma levels at 12 hours versus EC90 in all cell lines studied: above the EC90
[5]; hamster, in vivo, po
  time in which plasma levels fell by 50%: about 5 hours
[5]; oral gavage every 12 hours for seven days
  tolerability, clinical signs: well tolerated
